One test relates to CD98 (4F2hc, SLC3A2). In words: Surface CD98 nutrient transporter down-regulation by flow cytometry. Type of test: cell-based, murine. The note with it: FL5.12 cells; for % CD98 down-regulation: surface CD98 at 3 h, flow cytometry, mean ± SEM, n ≥3. From the text:
(§1) In an exemplified study, nutrient transporter down-regulation was monitored by quantifying surface levels of the amino acid transporter-associated protein, CD98, by flow cytometry. Vacuolation was scored in a range from 0 to […], as determined by a vacuolation assay described in greater detail in the Materials and Methods section below.
(§2) Cell culture studies: FL5.12 cells (murine hematopoetic cells originally obtained from Craig Thompson, Memorial Sloan Kettering Cancer Center) were maintained at 0.1-0.5 million/ml in RPMI 1640 (Mediatech) supplemented with 10% fetal calf serum (FCS, Sigma-Aldrich), 10 mM Hepes (Mediatech), 500 pg/ml recombinant IL-3 (cat #575502, Biolegend), 55 μM β-mercaptoethanol (Sigma-Aldrich), 2 mM L-glutamine (Mediatech), and antibiotics. Cells were screened for Mycoplasma every 3 months using the Look-Out Mycoplasma PCR Detection kit (cat #MP0035, Sigma).
Nutrient transporter expression: Surface CD98 (4F2hc, SLC3A2) expression was measured at 3 h using phycoerythrin (PE)-conjugated rat anti-mouse CD98 antibody (Biolegend, cat #128208); analysis was restricted to viable cells. PE conjugated Rat IgG2a, k (cat #400508, Biolegend) was used as an isotype control. For staining, 200,000 cells were pelleted, re-suspended in 100 μl FACS block (PBS with 10% FCS and 0.05% NaN3) containing 0.25 μL anti-CD98 antibody, incubated on ice for 30 min, washed twice with 1 ml FACS wash (PBS containing 2% FCS and 0.05% NaN3), and analyzed on a BD LSR II flow cytometer. Data was processed with FlowJo software (Treestar).

The subject of the next test is FL5.12 cells. In words: Vacuolation assay. Type of test: cell-based, murine. The arrangement: key to Vacuolation score: 0-100 score: (3×%cat3+2×%cat2+1×%cat1)/3; cells graded 0-3 for vacuoles. Particulars: for Vacuolation score / vacuolation (in words): FL5.12 cells; for Vacuolation score: 3 h in 2.5 μM compound except where otherwise indicated, mean ± SEM, n ≥3; for vacuolation (in words): at any dose / highest dose tested; for ability to induce vacuole formation: highest concentrations tested (30 μM). How it is done: as §1
Vacuolation assay: Cells were evaluated at 100× using brightfield microscopy and a Nikon TE2000-S fluorescence microscope equipped with DIC filters. Vacuolation was quantified after a 3 h incubation period in 2.5 μM compound except where otherwise indicated. To calculate a vacuolation score, vacuolation severity in at least 15 individual cells/experiment was assessed qualitatively. Scores were assigned to individual cells as follows: 0=no vacuoles, 1=very small vacuoles, 2=multiple well-defined vacuoles, 3=multiple large vacuoles. To calculate the vacuolation score associated with a compound, the following formula was used: vacuolation score=[(3×% cells in category 3)+(2×% cells in category 2)+(1×% cells in category 1)]/3.
The score is divided by 3 so that a compound with 100% of its cells in category 3 would have a vacuolation score of 100. Three independent experiments were conducted and the vacuolation scores averaged to generate a mean+/−SEM. All cells were scored by one lab member after confirming that a blinded individual scored 5 compounds with similar results.

Test [1] relates to murine hematopoietic cell line FL5.12. In words: Viability of FL5.12 cells by vital dye exclusion. Type of test: cell-based. The note with it: for IC50: FL5.12 cells, 48 h, vital dye exclusion, n ≥3, read-out: IC50 (μM) [95% CI]. Here is the method:
as §2
IC50 values were calculated using GraphPad Prism (GraphPad Software, Inc, La Jolla, Calif.).

Structures are written as SMILES. Where “and” joins values, the source holds several entries; their conditions need not be identical. Equal entries are not always repeated. Where two headings read alike, the source gives them in different places.

23 compounds from US10995068B2, “Synthetic sphingolipid-like molecules, drugs, methods of their synthesis and methods of treatment” (The Regents of the University of California, priority 2015, dated 2021) can be followed below.

As for `CCCCCCCCCCCCCCc1ccc(COC2CNC(CO)C2)cc1` (centres unmarked) [Compound 123], in the test on CD98 (4F2hc, SLC3A2), the “% CD98 down-regulation” value was found to be 19 ± 1%. Also, the Vacuolation score in the test with FL5.12 cells is reported as 3 ± 3. For the same compound, the IC50 in test [1] turned out to be 5.7 µM.

`CCCCCCCCCCc1ccc(COC2CNC(CO)C2)cc1` (centres unmarked) [Compound 120]: in the test with CD98 (4F2hc, SLC3A2), the “% CD98 down-regulation” value is 28 ± 1%. In addition, the Vacuolation score in the test with FL5.12 cells turned out to be 36 ± 5. The IC50 in test [1] is 3.6 µM.

Regarding `CCCCCCCCCCCCCCc1ccc(COC2CNC(CO)C2)cc1` (centres unmarked) [Compound 116], the “% CD98 down-regulation” value in the test with CD98 (4F2hc, SLC3A2) is given as 12 ± 3%. Moreover, in the test with FL5.12 cells, the Vacuolation score worked out at 4 ± 2. Moreover, the IC50 in test [1] turned out to be 10.5 µM.

For the compound `CCCCCCCCc1ccc([C@@H]2CCN[C@H]2CO)cc1` [Compound 105], in the test on CD98 (4F2hc, SLC3A2), the “% CD98 down-regulation” value was 47% and 47 ± 3%. Also, the Vacuolation score in the test with FL5.12 cells was 53 and 53 ± 3. Besides, in test [1], the half-maximal inhibitory concentration (IC50) turned out to be 1.7 µM.

Take `CCCCCCCCCCCCC/C=C/[C@@H](O)[C@H](CO)N(C)C` [Compound 108, dimethylsphingosine, reference compound]: in the test on CD98 (4F2hc, SLC3A2), the “% CD98 down-regulation” value amounted to 69 ± 2%. The compound further registered a Vacuolation score in the test with FL5.12 cells of 72 ± 3. The IC50 in test [1] was 0.77 µM and 0.8 µM. In test [1] (IC50, FL5.12 cells), the “fold more potent than sphingosine (106)” value is listed as around 5 fold.

For `CCCCCCCCc1ccc(COC2CC(CO)N(C(C)=O)C2)cc1` (centres unmarked) [Compound 131], in the test on CD98 (4F2hc, SLC3A2), the “% CD98 down-regulation” value came out at 37 ± 3%. In the test on FL5.12 cells, the Vacuolation score is given as 1 ± 1 and the “vacuolation (in words)” value is listed as “no vacuolation activity”. The IC50 in test [1] amounted to 29.7 µM. Moreover, the “fold less potent than analog 102” value in test [1] (IC50, FL5.12 cells) amounted to 10 fold.

As to `CCCCC=Cc1ccc(COC2CNC(CO)C2)cc1` (centres unmarked) [Compound 118], the “% CD98 down-regulation” value in the test with CD98 (4F2hc, SLC3A2) worked out at 9 ± 3%. In the test with FL5.12 cells, this compound gave a Vacuolation score of 5 ± 2. Further, the half-inhibitory concentration (IC50) in test [1] came out at 5.7 µM.

For the compound `CCCCCCCCc1ccc(COC2CC(CO)N(C(=N)N)C2)cc1` (centres unmarked) [Compound 133], the “% CD98 down-regulation” value in the test with CD98 (4F2hc, SLC3A2) was determined as 34 ± 3%. Also, in the test on FL5.12 cells, the Vacuolation score was determined as 0 and the “ability to induce vacuole formation” value is on record as “lost”. Besides, the IC50 in test [1] is 17.3 µM.

On to `CCCCCCCCc1ccc(COC2CNC(CO)C2)cc1` (centres unmarked) [Compound 103], for which the “% CD98 down-regulation” value in the test with CD98 (4F2hc, SLC3A2) was 48 ± 2%. In the test with FL5.12 cells, this compound had a Vacuolation score of 47 ± 2. In test [1], the IC50 was 3 µM.

In the case of `CCCCCCCCCCCCCCC[C@@H](O)[C@@H](N)CO` [Compound 107, sphinganine, reference compound], in the test with CD98 (4F2hc, SLC3A2), the “% CD98 down-regulation” value worked out at 47 ± 3%. In the test with FL5.12 cells, the Vacuolation score is 38 ± 6. The IC50 in test [1] (Mus musculus) amounted to 3.5 µM.

Take `CCCCCCC=Cc1ccc(C2CCNC2CO)cc1` (centres unmarked) [Compound 125]: the “% CD98 down-regulation” value with CD98 (4F2hc, SLC3A2) stood at 58 ± 3%. This compound also returned a Vacuolation score in the test with FL5.12 cells of 84 ± 2. In addition, the IC50 in test [1] was 1.7 µM.

With `CCCCCCCCc1ccc([C@H]2CCN(C(C)=O)[C@@H]2CO)cc1` [Compound 134], in the test on CD98 (4F2hc, SLC3A2), the “% CD98 down-regulation” value worked out at 40 ± 4%. For the same compound, in the test on FL5.12 cells, the Vacuolation score is recorded as 0 and the “vacuolation (in words)” value is recorded as “failed to induce vacuolation”. Also, the IC50 in test [1] stood at 39.7 µM.

As for `CCCCCCCCCCCCc1ccc(COC2CNC(CO)C2)cc1` (centres unmarked) [Compound 114], the “% CD98 down-regulation” value in the test on CD98 (4F2hc, SLC3A2) is given as 13 ± 3%. In addition, the Vacuolation score with FL5.12 cells was 3 ± 1. In addition, the concentration for half-maximal inhibition (IC50) in test [1] stood at 10.1 µM.

For `CCCCCCCCCCCCc1ccc(COC2CNC(CO)C2)cc1` (centres unmarked) [Compound 121], the “% CD98 down-regulation” value with CD98 (4F2hc, SLC3A2) worked out at 14 ± 4%. This compound also had a Vacuolation score in the test with FL5.12 cells of 30 ± 2. The IC50 in test [1] worked out at 3.9 µM.

With `CCCCC=Cc1ccc(COC2CNC(CO)C2)cc1` (centres unmarked) [Compound 112], in the test with CD98 (4F2hc, SLC3A2), the “% CD98 down-regulation” value is 30 ± 4%. Further, the Vacuolation score in the test on FL5.12 cells is listed as 0. Moreover, the IC50 in test [1] came to 5.5 µM.

Turning to `CCCCCCC=Cc1ccc(COC2CC(CO)N(C)C2)cc1` (centres unmarked) [Compound 130], in the test on CD98 (4F2hc, SLC3A2), the “% CD98 down-regulation” value is 31 ± 4%. For the same compound, the Vacuolation score in the test on FL5.12 cells worked out at 26 ± 2. For the same compound, the 50% inhibitory concentration (IC50) in test [1] was found to be 1.9 µM.

On to `CCCCCCC=Cc1ccc(C2CCN(C(C)=O)C2CO)cc1` (centres unmarked) [Compound 135], for which, in the test with CD98 (4F2hc, SLC3A2), the “% CD98 down-regulation” value is 40 ± 2%. For the same compound, in the test with FL5.12 cells, the Vacuolation score is 2 ± 2 and the “vacuolation (in words)” value is “failed to induce vacuolation”. Also, in test [1], the IC50 came out at 46.2 µM.

As to `CCCCCCCCCCCCC/C=C/[C@@H](O)[C@@H](N)CO` [Compound 106, sphingosine, reference compound], the “concentration required to cause similar transporter loss” value with CD98 (4F2hc, SLC3A2) (CD98 loss) is 2.5 µM. In addition, the “% CD98 down-regulation” value with CD98 (4F2hc, SLC3A2) was 48 ± 2%. Further, the Vacuolation score in the test on FL5.12 cells was 57 ± 6. In addition, the IC50 in test [1] (Mus musculus) came out at 3.6 µM.

Take `CCCCCCc1ccc(COC2CNC(CO)C2)cc1` (centres unmarked) [Compound 111]: the “% CD98 down-regulation” value in the test with CD98 (4F2hc, SLC3A2) was found to be 30 ± 2%. The Vacuolation score in the test with FL5.12 cells is recorded as 0. Also, in test [1], the IC50 amounted to 2.7 µM.

As to `CCCCCCCCc1ccc(COC2CNC(CO)C2)cc1` (centres unmarked) [Compound 102], the “% CD98 down-regulation” value with CD98 (4F2hc, SLC3A2) was determined as 63 ± 3%. For the same compound, in the test with FL5.12 cells, the Vacuolation score was determined as 33 ± 2. Moreover, in test [1], the IC50 stood at 2 µM.

`CCCCCCCCc1ccc(COC2CC(CO)N(C(=N)N)C2)cc1` (centres unmarked) [Compound 132]: the “% CD98 down-regulation” value in the test with CD98 (4F2hc, SLC3A2) turned out to be 35 ± 1%. Besides, in the test with FL5.12 cells, the Vacuolation score is on record as 0 and the “ability to induce vacuole formation” value is “lost”. In addition, the IC50 in test [1] stood at 14.2 µM.

As to `CCCCCCC=Cc1ccc(COC2CNC(CO)C2)cc1` (centres unmarked) [Compound 119], in the test on CD98 (4F2hc, SLC3A2), the “% CD98 down-regulation” value stood at 41 ± 3%. This compound registered a Vacuolation score with FL5.12 cells of 70 ± 1. Further, in test [1], the IC50 came out at 2.4 µM.

`CCCCCCC=Cc1ccc(COC2CNC(CO)C2)cc1` (centres unmarked) [Compound 113]: in the test with CD98 (4F2hc, SLC3A2), the “% CD98 down-regulation” value is recorded as 64 ± 1%. This compound displayed a Vacuolation score in the test on FL5.12 cells of 27 ± 1. Further, the IC50 in test [1] amounted to 1.4 µM.
